Test results as given in patent US20210139484A1, “DIHYDROISOQUINOLINE-2(1H)-CARBOXAMIDE AND RELATED COMPOUNDS AND THEIR USE IN TREATING MEDICAL CONDITIONS” (GOSSAMER BIO SERVICES, INC., priority 2018, published 2021).

biological target: T1, human HPK1 protein (Homo sapiens, UniProt Q92918); assay: Human HPK1 protein TR-FRET assay; format: biochemical; conditions: 1 mM ATP, Table 19
T1 construct: recombinant human HPK1 protein (a.a. 1-346) was expressed in Sf9 insect cells; GST (N); purchased Signalchem M23-11G; host or cells: Sf9 insect cells (baculovirus)
T1 sequence (Q92918 1-346): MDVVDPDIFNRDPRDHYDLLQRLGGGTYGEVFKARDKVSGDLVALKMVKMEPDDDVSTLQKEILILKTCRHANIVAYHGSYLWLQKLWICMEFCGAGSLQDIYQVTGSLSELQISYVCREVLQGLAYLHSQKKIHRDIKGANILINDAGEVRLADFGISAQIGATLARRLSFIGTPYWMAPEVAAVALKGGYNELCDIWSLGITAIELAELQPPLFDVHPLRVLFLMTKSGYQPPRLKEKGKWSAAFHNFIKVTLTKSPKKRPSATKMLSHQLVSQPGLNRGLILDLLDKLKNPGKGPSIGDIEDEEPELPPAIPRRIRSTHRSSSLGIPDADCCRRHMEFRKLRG
Procedure, shortened: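 Read-out was TR-FRET using Eu-labeled anti-phospho-CREB (Ser133) antibody, with the 665/615 nm signal ratio normalised to DMSO-only wells and fitted by a 4-parameter logistic model for IC50. Reactions held 10 nM Sf9-expressed GST-HPK1 (a.a. 1-346), 100 nM CREBtide and 1 mM ATP, run 60 minutes at room temperature, pH 7.5.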

IC50 [nM] | SMILES
< 500 | CCN1CCN(Cc2ccc(NC(=O)N3CCc4ccc(Oc5ccnc6[nH]c(C)cc56)cc4[C@@H]3C)cc2C(F)(F)F)CC1 [V-29]
< 500 | Cc1cc2c(Oc3ccc4c(c3)[C@H](C)N(C(=O)Nc3cnc(OC5CCNCC5)c(C(F)(F)F)c3)CC4)ccnc2[nH]1 [VI-1]
< 500 | Cc1cc2c(Oc3ccc4c(c3)[C@H](C)N(C(=O)Nc3cnc(OC5CCN(C)CC5)c(C(F)(F)F)c3)CC4)ccnc2[nH]1 [VI-2]
< 500 | CCN1CCC(Oc2ncc(NC(=O)N3CCc4ccc(Oc5ccnc6[nH]c(C)cc56)cc4[C@@H]3C)cc2C(F)(F)F)CC1 [VI-3]
< 500 | Cc1cc2c(Oc3ccc4c(c3)[C@H](C)N(C(=O)Nc3cnc(NC5CCN(C)CC5)c(C(F)(F)F)c3)CC4)ccnc2[nH]1 [VI-7]
500 to 5000 | Cc1cc2c(Oc3ccc4c(c3)[C@H](C)N(C(=O)Nc3cnc(OC5CN(C)C5)c(C(F)(F)F)c3)CC4)ccnc2[nH]1 [VI-12]
5000 to 10000 | Cc1cc2c(Oc3ccc4c(c3)[C@H](C)N(C(=O)Nc3cnc(Oc5ccncc5)c(C(F)(F)F)c3)CC4)ccnc2[nH]1 [VI-14]
500 to 5000 | Cc1cc2c(Oc3ccc4c(c3)[C@H](C)N(C(=O)Nc3cnc(OCCN(C)C)c(C(F)(F)F)c3)CC4)ccnc2[nH]1 [VI-15]
500 to 5000 | Cc1cc2c(Oc3ccc4c(c3)[C@H](C)N(C(=O)Nc3cnc(OCCCN(C)C)c(C(F)(F)F)c3)CC4)ccnc2[nH]1 [VI-16]
500 to 5000 | Cc1cc2c(Oc3ccc4c(c3)[C@H](C)N(C(=O)Nc3cnc(OCCn5ccnc5)c(C(F)(F)F)c3)CC4)ccnc2[nH]1 [VI-17]
< 500 | Cc1cc2c(Oc3ccc4c(c3)[C@H](C)N(C(=O)Nc3cnc(OC5CCN(CCO)CC5)c(C(F)(F)F)c3)CC4)ccnc2[nH]1 [VI-18]
< 500 | CCN1CCN(Cc2ccc(NC(=O)N3CCc4ncc(Oc5ccnc6[nH]ccc56)cc4C3)cc2C(F)(F)F)CC1 [VII-1]
500 to 5000 | CCN1CCN(Cc2ccc(NC(=O)N3CCc4ncc(Oc5ncnc6[nH]ccc56)cc4C3)cc2C(F)(F)F)CC1 [VII-2]
< 500 | CCN1CCN(Cc2ccc(NC(=O)N3Cc4cc(Oc5ccnc6[nH]c(C)cc56)cnc4C(C)C3)cc2C(F)(F)F)CC1 (stereo not drawn) [VII-3]
< 500 | Cc1cc2c(Oc3cnc4c(c3)CN(C(=O)Nc3cnc(OC5CCN(C)CC5)c(C(F)(F)F)c3)CC4C)ccnc2[nH]1 (stereo not drawn) [VII-6]
500 to 5000 | CC1CN(C(=O)Nc2cnc(OC3CCN(C)CC3)c(C(F)(F)F)c2)Cc2cc(Oc3ccnc4[nH]ncc34)cnc21 (stereo not drawn) [VII-9]
< 500 | CC1CN(C(=O)Nc2cnc(OC3CCN(C)CC3)c(C(F)(F)F)c2)Cc2cc(Oc3ccnc4[nH]ncc34)cnc21 (stereo not drawn) [VII-10]
500 to 5000 | CC1CN(C(=O)Nc2cnc(OC3CCN(C)CC3)c(C(F)(F)F)c2)Cc2cc(Oc3ccnc4[nH]ncc34)cnc21 (stereo not drawn) [VII-11]
< 500 | Cc1cc2c(Oc3cnc4c(c3)CN(C(=O)Nc3cnc(OC5CCN(C)CC5)c(C(F)(F)F)c3)CC4C)ncnc2[nH]1 (stereo not drawn) [VII-12]

IC50 [nM] | SMILES
< 500 | Cc1cc2c(Oc3cnc4c(c3)CN(C(=O)Nc3cnc(OC5CCN(C)CC5)c(C(F)(F)F)c3)CC4C)ncnc2[nH]1 (stereo not drawn) [VII-13]
< 500 | Cc1cc2c(Oc3cnc4c(c3)CN(C(=O)Nc3cnc(OC5CCN(C)CC5)c(C(F)(F)F)c3)CC4C)ncnc2[nH]1 (stereo not drawn) [VII-14]
< 500 | CCN1CCN(Cc2ccc(NC(=O)N3Cc4cc(Oc5ccnc6[nH]ncc56)cnc4C(C)C3)cc2C(F)(F)F)CC1 (stereo not drawn) [VII-15]
< 500 | CCN1CCN(Cc2ccc(NC(=O)N3Cc4cc(Oc5ccnc6[nH]ncc56)cnc4C(C)C3)cc2C(F)(F)F)CC1 (stereo not drawn) [VII-16]
< 500 | CCN1CCN(Cc2ccc(NC(=O)N3Cc4cc(Oc5ccnc6[nH]ncc56)cnc4C(C)C3)cc2C(F)(F)F)CC1 (stereo not drawn) [VII-17]
< 500 | CCN1CCN(Cc2ccc(NC(=O)N3Cc4cc(Oc5ncnc6[nH]c(C)cc56)cnc4C(C)C3)cc2C(F)(F)F)CC1 (stereo not drawn) [VII-18]
< 500 | Cc1cc2c(Oc3cnc4c(c3)CN(C(=O)Nc3cnc(OC5CCN(C)CC5O)c(C(F)(F)F)c3)CC4C)ccnc2[nH]1 (stereo not drawn) [VII-19]
500 to 5000 | CCN1CCN(Cc2ccc(NC(=O)N3CCc4ncc(Oc5ccnc6[nH]c(C)cc56)cc4C3C)cc2C(F)(F)F)CC1 (stereo not drawn) [VIII-1]
500 to 5000 | CCN1CCN(Cc2ccc(NC(=O)N3CCc4ncc(Oc5ccnc6[nH]ncc56)cc4C3C)cc2C(F)(F)F)CC1 (stereo not drawn) [VIII-3]
500 to 5000 | CCN1CCN(Cc2ccc(NC(=O)N3CCc4ncc(Oc5ncnc6[nH]c(C)cc56)cc4C3C)cc2C(F)(F)F)CC1 (stereo not drawn) [VIII-6]
500 to 5000 | CCN1CCN(Cc2ccc(NC(=O)N3CCc4cc(Oc5ccnc6[nH]ccc56)ccc4C3)cc2C(F)(F)F)CC1 [X-1]
500 to 5000 | CCN1CCN(Cc2ccc(NC(=O)N3CCc4ccc(Oc5ccnc6[nH]ccc56)cc4C3=O)cc2C(F)(F)F)CC1 [X-2]
500 to 5000 | CCN1CCN(Cc2ccc(NC(=O)N3CCc4ccc(Sc5ncnn6cccc56)cc4C3)cc2C(F)(F)F)CC1 [X-3]
> 10000 | CCN1CCN(Cc2ccc(NC(=O)N3CC(C)c4ccc(Oc5ccnc6[nH]ccc56)cc4[C@@H]3C)cc2C(F)(F)F)CC1 (stereo partly drawn) [X-4]
< 500 | CCN1CCN(Cc2ccc(NC(=O)N3CCc4nc(C)c(Oc5ccnc6[nH]ccc56)cc4C3)cc2C(F)(F)F)CC1 [X-5]
< 500 | Cc1cc2c(Oc3ccc4c(c3)[C@H](C)N(C(=O)Nc3ccc5c(N6CCN(C)CC6)cccc5c3)CC4)ccnc2[nH]1 [X-6]
< 500 | Cc1cc2c(Oc3ccc4c(c3)[C@H](C)N(C(=O)Nc3cnc5c(N6CCN(C)CC6)cccc5c3)CC4)ccnc2[nH]1 [X-7]
5000 to 10000 | Cc1cc2c(Oc3ccc4c(c3)[C@H](C)N(C(=O)Nc3cnc5c(c3)CCCN5C3CCN(C)CC3)CC4)ccnc2[nH]1 [X-8]

same assay, conditions: 1 mM ATP, Table 20

IC50 [nM] | SMILES
500 to 5000 | CCN1CCN(Cc2ccc(NC(=O)N3CCc4ccc(-c5ccc6cc(NC)ncc6c5)cc4C3)cc2C(F)(F)F)CC1 [XI-1]
500 to 5000 | CCN1CCN(Cc2ccc(NC(=O)N3CCc4c(cc(F)cc4Oc4ncnn5cccc45)C3)cc2C(F)(F)F)CC1 [XI-2]
< 500 | CCN1CCN(Cc2ccc(NC(=O)N3CCc4ncc(Oc5ccnc6[nH]ccc56)cc4[C@@H]3C)cc2C(F)(F)F)CC1 [XI-3]
500 to 5000 | CCN1CCN(Cc2ccc(NC(=O)N3CCc4ncc(Oc5ccnc6[nH]ccc56)cc4[C@H]3C)cc2C(F)(F)F)CC1 [XI-4]
< 500 | CCN1CCN(Cc2ccc(NC(=O)N3Cc4cc(Oc5ccnc6[nH]c(C)cc56)cnc4[C@H](C)C3)cc2C(F)(F)F)CC1 [XI-5]
< 500 | CCN1CCN(Cc2ccc(NC(=O)N3Cc4cc(Oc5ncnc6[nH]c(C)cc56)cnc4[C@@H](C)C3)cc2C(F)(F)F)CC1 [XI-6]
500 to 5000 | CCN1CCN(Cc2ccc(NC(=O)N3CCc4ncc(Oc5ncnc6[nH]c(C)cc56)cc4[C@@H]3C)cc2C(F)(F)F)CC1 [XI-7]
5000 to 10000 | CCN1CCN(Cc2ccc(NC(=O)N3CCc4ncc(Oc5ncnc6[nH]c(C)cc56)cc4[C@H]3C)cc2C(F)(F)F)CC1 [XI-8]
< 500 | CCN1CCN(Cc2ccc(NC(=O)N3Cc4cc(Oc5ccnc6[nH]ccc56)cnc4[C@@H](C)C3)cc2C(F)(F)F)CC1 [XI-10]
< 500 | CCN1CCN(Cc2ccc(NC(=O)N3Cc4cc(Oc5ccnc6[nH]ccc56)cnc4[C@H](C)C3)cc2C(F)(F)F)CC1 [XI-11]
> 10000 | CCN1CCN(Cc2ccc(NC(=O)N3CCc4ncc(Oc5cccc6[nH]ccc56)cc4C3C)cc2C(F)(F)F)CC1 (stereo not drawn) [XI-12]
< 500 | CN1CCN(Cc2ncc(NC(=O)N3CCc4ccc(Oc5c(F)cnc6[nH]c(-c7cnn(C)c7)cc56)cc4C3)cc2C(F)(F)F)CC1 [XII-1]
< 500 | CCN1CCN(Cc2ccc(NC(=O)N3CCc4ccc(Oc5c(F)cnc6[nH]c(-c7cnn(C)c7)cc56)cc4[C@@H]3C)cc2C(F)(F)F)CC1 [XII-2]
< 500 | C[C@H]1c2cc(Oc3c(F)cnc4[nH]c(-c5cnn(C)c5)cc34)ccc2CCN1C(=O)Nc1ccc(CN2CCN(C)CC2)c(C(F)(F)F)c1 [XII-3]
< 500 | CN1CC[C@@H](Oc2ncc(NC(=O)N3CCc4ccc(Oc5c(F)cnc6[nH]c(-c7cnn(C)c7)cc56)cc4C3)cc2C(F)(F)F)[C@@H](O)C1 [XII-4]
< 500 | CN1CCN(Cc2ccc(NC(=O)N3CCc4ccc(Oc5c(F)cnc6[nH]c(-c7ccncc7)cc56)cc4C3)cc2C(F)(F)F)CC1 [XII-5]
< 500 | CN1CCN(Cc2ncc(NC(=O)N3CCc4ccc(Oc5c(F)cnc6[nH]c(-c7cccnc7)cc56)cc4C3)cc2C(F)(F)F)CC1 [XII-6]
< 500 | CN1CCN(Cc2ccc(NC(=O)N3CCc4ccc(Oc5c(F)cnc6[nH]c(-c7cccnc7)cc56)cc4C3)cc2C(F)(F)F)CC1 [XII-7]
< 500 | CN1CCN(Cc2ncc(NC(=O)N3CCc4ccc(Oc5c(F)cnc6[nH]c(-c7cn[nH]c7)cc56)cc4C3)cc2C(F)(F)F)CC1 [XII-8]
< 500 | CN1CCN(Cc2ccc(NC(=O)N3CCc4ccc(Oc5c(F)cnc6[nH]c(-c7cn[nH]c7)cc56)cc4C3)cc2C(F)(F)F)CC1 [XII-9]
< 500 | CN1CCN(Cc2ncc(NC(=O)N3CCc4ccc(Oc5c(F)cnc6[nH]c(-c7ccncc7)cc56)cc4C3)cc2C(F)(F)F)CC1 [XII-10]
< 500 | C[C@H]1CN(C(=O)Nc2cnc(CN3CCN(C)CC3)c(C(F)(F)F)c2)Cc2cc(Oc3c(F)cnc4[nH]c(-c5cnn(C)c5)cc34)ccc21 [XII-11]
< 500 | C[C@H]1CN(C(=O)Nc2ccc(CN3CCN(C)CC3)c(C(F)(F)F)c2)Cc2cc(Oc3c(F)cnc4[nH]c(-c5cnn(C)c5)cc34)ccc21 [XII-12]
